Test results reported in patent US20240207282A1, “METHOD OF INCREASING CHAPERONE MEDIATED AUTOPHAGY BY STABILIZING THE INTERACTION OF RETINOIC ACID RECEPTOR-ALPHA AND AN INHIBITOR” (ALBERT EINSTEIN COLLEGE OF MEDICINE, priority 2021, published 2024).

Test system: NIH3T3
Test: Cell viability under paraquat oxidative stress
Type: cell-based, mouse
Method: Cells: NIH3T3 mouse fibroblasts and the N2a neuroblastoma cell line were obtained from the American Type Culture Collection and were validated by genomic PCR. Primary human fibroblasts (GM01651) were from Coriell Repository. All the cells lines were tested for mycoplasma contamination using DNA staining protocol with Hoechst 33258 dye. Knock-down of NCoR1 was done using lentiviral mediated shRNA (SHCLNG-NM_011308) from the Sigma Mission library following standard procedures. Efficiency of knock-down was tested by immunoblot. Cell viability was measured using the CellTiter-Blue kit (Promega) 24 h after the addition of the different stressors according to manufacturer's instructions.

## Clc1ccc2c(c1)OCC(c1ccc(-c3ccccc3)cc1)=N2 [CA39]
Compound added after the insult, compared with AR7
  protection against paraquat: significantly higher protection than AR7
Compound administered before the insult
  cell death under paraquat: reduced cell death
